In patent US7709471B2, “Compounds” (AstraZeneca AB, priority 2006, dated 2010):

Assays:
[1] = target: recombinant Plk1 (Homo sapiens, UniProt P53350); assay: In Vitro Plk1 Enzyme Assay (SPA, GST-Cdc25C phosphorylation); format: biochemical; conditions: ATP 64 nM, 90 minutes, read-out: IC50 (Plk1 enzyme inhibition)
[2] = test system: human colon tumour cell line HT29; assay: Cellular Assay (phosphohistone H3 Ser10 mitotic marker, HT29); format: cell-based; conditions: HT-29, 24 h, HT29 cells, read-out: IC50 (cellular assay, phosphohistone H3)

Chain of recombinant Plk1 (P53350 whole entry): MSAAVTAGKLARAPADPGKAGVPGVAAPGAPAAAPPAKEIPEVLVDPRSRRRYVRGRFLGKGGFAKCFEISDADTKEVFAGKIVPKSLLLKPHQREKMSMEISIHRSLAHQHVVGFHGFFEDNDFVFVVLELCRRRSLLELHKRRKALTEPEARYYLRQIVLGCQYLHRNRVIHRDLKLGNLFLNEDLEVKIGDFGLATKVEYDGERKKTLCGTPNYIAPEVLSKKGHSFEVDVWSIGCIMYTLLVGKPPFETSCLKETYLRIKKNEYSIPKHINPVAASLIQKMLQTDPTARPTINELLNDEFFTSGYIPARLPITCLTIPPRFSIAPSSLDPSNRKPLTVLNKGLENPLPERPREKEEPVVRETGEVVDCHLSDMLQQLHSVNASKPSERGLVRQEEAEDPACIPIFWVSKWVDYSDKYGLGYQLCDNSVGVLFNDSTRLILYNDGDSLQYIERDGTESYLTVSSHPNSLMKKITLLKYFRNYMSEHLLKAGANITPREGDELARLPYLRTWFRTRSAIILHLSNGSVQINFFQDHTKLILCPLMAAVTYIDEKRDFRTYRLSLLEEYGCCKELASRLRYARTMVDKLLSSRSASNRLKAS

Row | IC50 [1] [nM] | IC50 [2] [nM] | Compound
1 | < 300 | < 300 | COc1cc(C(=O)NC2CCN(C)CC2)c(F)cc1Nc1ncc2c(n1)N(C1CCCC1)CCC(=O)N2C [Example 48, 4-[(6-cyclopentyl-2-methyl-3-oxo-2,6,8,10-tetrazabicyclo[5.4.0]undeca-8,10,12-trien-9-yl)amino]-2-fluoro-5-methoxy-N-(1-methyl-4-piperidyl)benzamide]
2 | < 300 | < 300 | COc1cc(C(=O)N[C@H]2[C@@H]3CNC[C@@H]32)ccc1Nc1ncc2c(n1)N(C1CCCC1)CCC(=O)N2C [Example 57, N-[(1S,5R)-3-azabicyclo[3.1.0]hex-6-yl]-4-[(6-cyclopentyl-2-methyl-3-oxo-2,6,8,10-tetrazabicyclo[5.4.0]undeca-8,10,12-trien-9-yl)amino]-3-methoxy-benzamide]
3 | < 1000 | < 300 | CCN1CCC(NC(=O)c2cc(Cl)c(Nc3ncc4c(n3)N(C3CCCC3)CCC(=O)N4C)cc2F)CC1 [Example 323, 5-chloro-4-[(2-cyclopentyl-6-methyl-5-oxo-2,6,9,11-tetrazabicyclo[5.4.0]undeca-7,9,11-trien-10-yl)amino]-N-(1-ethyl-4-piperidyl)-2-fluoro-benzamide]
4 | < 100000 | < 300 | COc1cc(C(=O)NC2CCN(C(=O)OCc3ccccc3)CC2)ccc1Nc1ncc2c(n1)N(C1CCCC1)CCC(=O)N2C [Example 54, Benzyl 4-[[4-[(6-cyclopentyl-2-methyl-3-oxo-2,6,8,10-tetrazabicyclo[5.4.0]undeca-8,10,12-trien-9-yl)amino]-3-methoxy-benzoyl]amino]piperidine-1-carboxylate]
5 | < 100000 | < 1000 | COc1cc(C(=O)N[C@H]2CCN(C(=O)OC(C)(C)C)C2)ccc1Nc1ncc2c(n1)N(C1CCCC1)CCC(=O)N2C [Example 53, tert-butyl (3S)-3-[[4-[(6-cyclopentyl-2-methyl-3-oxo-2,6,8,10-tetrazabicyclo[5.4.0]undeca-8,10,12-trien-9-yl)amino]-3-methoxy-benzoyl]amino]pyrrolidine-1-carboxylate]
6 | < 1000 | < 30000 | COCCN1CCN(c2ccc(Nc3ncc4c(n3)N(C3CCCC3)CCC(=O)N4C)c(OC)c2)CC1 [Example 105, 6-cyclopentyl-9-[[2-methoxy-4-[4-(2-methoxyethyl)piperazin-1-yl]phenyl]amino]-2-methyl-2,6,8,10-tetrazabicyclo[5.4.0]undeca-8,10,12-trien-3-one]
7 | < 300 | < 300 | COc1cc(C(=O)NC[C@@H]2CCCN2CC2CC2)ccc1Nc1ncc2c(n1)N(C1CCCC1)CCC(=O)N2C [Example 82, 4-[(6-cyclopentyl-2-methyl-3-oxo-2,6,8,10-tetrazabicyclo[5.4.0]undeca-8,10,12-trien-9-yl)amino]-N-[[(2S)-1-(cyclopropylmethyl)pyrrolidin-2-yl]methyl]-3-methoxy-benzamide]
8 | < 300 | < 300 | Cc1cc(C(=O)NC2CCN(C)CC2)ccc1Nc1ncc2c(n1)N(C1CCCC1)CCC(=O)N2C [Example 193, 4-[(6-cyclopentyl-2-methyl-3-oxo-2,6,8,10-tetrazabicyclo[5.4.0]undeca-8,10,12-trien-9-yl)amino]-3-methyl-N-(1-methyl-4-piperidyl)benzamide]
9 | < 300 | < 300 | COc1cc(C(=O)NC2CCNCC2)ccc1Nc1ncc2c(n1)N(C1CCCC1)CCC(=O)N2C [Example 41, 4-[(6-cyclopentyl-2-methyl-3-oxo-2,6,8,10-tetrazabicyclo[5.4.0]undeca-8,10,12-trien-9-yl)amino]-3-methoxy-N-(4-piperidyl)benzamide]
10 | < 100000 | < 300 | CCN1CCC(NC(=O)c2ccc(Nc3ncc4c(n3)N(C3CCCCC3)CC3(CC3)C(=O)N4C)c(OC)c2)CC1 [Example 433, 4-(9′-cyclohexyl-5′-methyl-6′-oxo-5′,6′,8′,9′-tetrahydrospiro[cyclopropane-1,7′-pyrimido[5,4-b][1,4]diazepine]-2′-ylamino)-N-(1-ethyl-4-piperidyl)-3-methoxy-benzamide]
11 | < 300 | < 300 | COc1cc(C(=O)NC2CCN(C)CC2)ccc1Nc1ncc2c(n1)N(CC1CC1)CCC(=O)N2C [Example 213, 4-[[6-(cyclopropylmethyl)-2-methyl-3-oxo-2,6,8,10-tetrazabicyclo[5.4.0]undeca-8,10,12-trien-9-yl]amino]-3-methoxy-N-(1-methyl-4-piperidyl)benzamide]
12 | < 1000 | < 30000 | COc1cc(C(=O)NC2CCCCC2)ccc1Nc1ncc2c(n1)N(C1CCN(C)CC1)CCC(=O)N2C [Example 233, N-cyclohexyl-3-methoxy-4-[[2-methyl-6-(1-methyl-4-piperidyl)-3-oxo-2,6,8,10-tetrazabicyclo[5.4.0]undeca-7,9,11-trien-9-yl]amino]benzamide]
13 | < 100000 | < 30000 | CN1CCC(NC(=O)c2cnc(Nc3ncc4c(n3)N(C3CCCC3)CCC(=O)N4C)o2)CC1 [Example 264, 2-[(6-cyclopentyl-2-methyl-3-oxo-2,6,8,10-tetrazabicyclo[5.4.0]undeca-8,10,12-trien-9-yl)amino]-N-(1-methyl-4-piperidyl)1,3-oxazole-5-carboxamide]
14 | < 300 | < 300 | COc1cc(C(=O)NC2CCN(C3CC3)CC2)ccc1Nc1ncc2c(n1)N(C1CCCC1)CCC(=O)N2C [Example 11, 4-[(6-cyclopentyl-2-methyl-3-oxo-2,6,8,10-tetrazabicyclo[5.4.0]undeca-8,10,12-trien-9-yl)amino]-N-(1-cyclopropyl-4-piperidyl)-3-methoxy-benzamide]

The next lines start with the compound.

Row | Compound | IC50 [1] [nM] | IC50 [2] [nM]
15 | COc1cc(C(=O)N[C@H]2C[C@H]3CCC[C@@H](C2)N3C)ccc1Nc1ncc2c(n1)N(C1CCCC1)CCC(=O)N2C [Example 59, 4-[(6-cyclopentyl-2-methyl-3-oxo-2,6,8,10-tetrazabicyclo[5.4.0]undeca-8,10,12-trien-9-yl)amino]-3-methoxy-N-[(1S,5R)-9-methyl-9-azabicyclo[3.3.1]non-7-yl]benzamide] | < 300 | < 300
16 | CN1CCC(NC(=O)c2coc(Nc3ncc4c(n3)N(C3CCCC3)CCC(=O)N4C)n2)CC1 [Example 265, 2-[(6-cyclopentyl-2-methyl-3-oxo-2,6,8,10-tetrazabicyclo[5.4.0]undeca-8,10,12-trien-9-yl)amino]-N-(1-methyl-4-piperidyl)1,3-oxazole-4-carboxamide] | < 100000 | < 30000
17 | COc1cc(C(=O)NCC(C)(C)N2CCCCC2)ccc1Nc1ncc2c(n1)N(C1CCCC1)CCC(=O)N2C [Example 75, 4-[(6-cyclopentyl-2-methyl-3-oxo-2,6,8,10-tetrazabicyclo[5.4.0]undeca-8,10,12-trien-9-yl)amino]-3-methoxy-N-[2-methyl-2-(1-piperidyl)propyl]benzamide] | < 300 | < 300
18 | COc1cc(C(=O)NC2CCN(C(C)C)CC2)ccc1Nc1ncc2c(n1)N(C1CCCC1)CCC(=O)N2C [Example 49, 4-[(6-cyclopentyl-2-methyl-3-oxo-2,6,8,10-tetrazabicyclo[5.4.0]undeca-8,10,12-trien-9-yl)amino]-3-methoxy-N-(1-propan-2-yl-4-piperidyl)benzamide] | < 300 | < 300
19 | CN1CCC(NC(=O)c2ccc(Nc3ncc4c(n3)N(C3CCCC3)CC(C)(C)C(=O)N4C)cc2)CC1 [Example 245, 4-[(2-cyclopentyl-4,4,6-trimethyl-5-oxo-2,6,9,11-tetrazabicyclo[5.4.0]undeca-7,9,11-trien-10-yl)amino]-N-(1-methyl-4-piperidyl)benzamide] | < 300 | < 300
20 | COCCNS(=O)(=O)c1ccc(Nc2ncc3c(n2)N(C2CCCC2)CCC(=O)N3C)cc1 [Example 125, 4-[(6-cyclopentyl-2-methyl-3-oxo-2,6,8,10-tetrazabicyclo[5.4.0]undeca-8,10,12-trien-9-yl)amino]-N-(2-methoxyethyl)benzenesulfonamide] | < 100000 | < 30000
21 | COc1cc(N(C)C2CCN(C)CC2)ccc1Nc1ncc2c(n1)N(C1CCCC1)CCC(=O)N2C [Example 104, 6-cyclopentyl-9-[[2-methoxy-4-[methyl-(1-methyl-4-piperidyl)amino]phenyl]amino]-2-methyl-2,6,8,10-tetrazabicyclo[5.4.0]undeca-8,10,12-trien-3-one] | < 300 | < 1000
22 | CN1CCC(NC(=O)c2ccc(Nc3ncc4c(n3)N(c3ccccc3)CCC(=O)N4C)cc2)CC1 [Example 224, 4-[(2-methyl-3-oxo-6-phenyl-2,6,8,10-tetrazabicyclo[5.4.0]undeca-8,10,12-trien-9-yl)amino]-N-(1-methyl-4-piperidyl)benzamide] | < 300 | < 30000
23 | COc1cc(C(=O)NCCN2CCCCC2)ccc1Nc1ncc2c(n1)N(C(C)C)CCC(=O)N2C [Example 205, 3-methoxy-4-[(2-methyl-3-oxo-6-propan-2-yl-2,6,8,10-tetrazabicyclo[5.4.0]undeca-7,9,11-trien-9-yl)amino]-N-[2-(1-piperidyl)ethyl]benzamide] | < 100000 | < 300
24 | COc1cc(C(=O)NCCCN2CCOCC2)ccc1Nc1ncc2c(n1)N(C1CCCC1)CCC(=O)N2C [Example 25, 4-[(6-cyclopentyl-2-methyl-3-oxo-2,6,8,10-tetrazabicyclo[5.4.0]undeca-8,10,12-trien-9-yl)amino]-3-methoxy-N-(3-morpholin-4-ylpropyl)benzamide] | < 300 | < 300
25 | CCCC1CN(C2CCCC2)c2nc(Nc3ccc(C(=O)NC4CCN(C)CC4)cc3OC)ncc2N(C)C1=O (single isomer, unassigned) [Example 238] | < 1000 | < 1000
26 | Cc1ccc(CO)cc1Nc1ncc2c(n1)N(C1CCCC1)CCC(=O)N2C [Example 178, 6-cyclopentyl-9-[[5-(hydroxymethyl)-2-methyl-phenyl]amino]-2-methyl-2,6,8,10-tetrazabicyclo[5.4.0]undeca-8,10,12-trien-3-one] | < 1000 | < 30000
